# Data published in US11331299B2, “Medicinal use of serrulatane diterpenes” (The University of Sydney, priority 2016, dated 2022).
# Read-outs that look alike come from different tables or passages of the source.
# Tested on: 280 human cancer cell lines
# Experiment: OncoPanel cell proliferation assay (10-day)
# Format: cell-based
# Conditions: Homo sapiens; for EC50: read-out: Cell Count EC50; for GI50: read-out: Cell Count GI50; for IC50: read-out: Cell Count IC50
# [1] = NCI-H292, NCI-H292, Lung - NSCLC
# [2] = NCI-H295R, Endocrine - Adrenal gland
# [3] = NCI-H441, NCIH441, Lung - NSCLC
# [4] = NCI-H460, NCI-H460, Lung - NSCLC
# [5] = NCI-H520, NCI-H520, Lung - NSCLC
# [6] = NCI-H596, NCI-H596, Lung - NSCLC
# [7] = NCI-H661, NCI-H661, Lung - NSCLC
# [8] = NTERA-2-cl-D1, NTERA-2 cl.D1, Testis
# [9] = OVCAR-3, OVCAR3, Female GU - Ovary
# [10] = RPMI-7951, RPMI-7951, Skin (Melanoma)
# [11] = SAOS-2, SaOS2, Soft Tissue - Osteosarcoma
compound,measurement,setting,value
"CC(C)=CCC[C@@H]1C(O)Oc2c(C)cc(O)c3c2[C@H]1CC[C@H]3C (some centres unmarked) [Compound 2, 5,18-epoxyserrulat-14-en-8,18-diol]",EC50,[1],16.7 µM
same,GI50,[1],16.6 µM
same,IC50,[1],16.7 µM
same,EC50,[2],> 30 µM
same,GI50,[2],> 30 µM
same,IC50,[2],> 30 µM
same,EC50,[3],> 30 µM
same,GI50,[3],> 30 µM
same,IC50,[3],> 30 µM
same,EC50,"NCI-H446, NCIH446, Lung - SCLC",9.75 µM
same,GI50,"NCI-H446, NCIH446, Lung - SCLC",9.77 µM
same,IC50,"NCI-H446, NCIH446, Lung - SCLC",9.85 µM
same,EC50,[4],5.57 µM
same,GI50,[4],5.91 µM
same,IC50,[4],5.92 µM
same,EC50,"NCI-H508, NCI-H508, Colon",> 30 µM
same,GI50,"NCI-H508, NCI-H508, Colon",> 30 µM
same,IC50,"NCI-H508, NCI-H508, Colon",> 30 µM
same,EC50,[5],9.03 µM
same,GI50,[5],9.17 µM
same,IC50,[5],9.2 µM
same,EC50,[6],12 µM
same,GI50,[6],14.4 µM
same,IC50,[6],15.1 µM
same,EC50,[7],9.51 µM
same,GI50,[7],9.51 µM
same,IC50,[7],9.51 µM
same,EC50,"NCI-H747, NCI-H747, Colon",12.3 µM
same,GI50,"NCI-H747, NCI-H747, Colon",> 30 µM
same,IC50,"NCI-H747, NCI-H747, Colon",> 30 µM
same,EC50,[8],12.5 µM
same,GI50,[8],12.3 µM
same,IC50,[8],12.5 µM
same,EC50,"OCUG-1, OCUG-1, Liver",> 30 µM
same,GI50,"OCUG-1, OCUG-1, Liver",29.9 µM
same,IC50,"OCUG-1, OCUG-1, Liver",> 30 µM
same,EC50,"OE19, OE19, Head and Neck",> 30 µM
same,GI50,"OE19, OE19, Head and Neck",> 30 µM
same,IC50,"OE19, OE19, Head and Neck",> 30 µM
same,EC50,"OE21, OE21, Head and Neck",> 30 µM
same,GI50,"OE21, OE21, Head and Neck",> 30 µM
same,IC50,"OE21, OE21, Head and Neck",> 30 µM
same,EC50,[9],14.4 µM
same,GI50,[9],13.7 µM
same,IC50,[9],14.4 µM
same,EC50,"PA-1, Female GU - Ovary",11.6 µM
same,GI50,"PA-1, Female GU - Ovary",16.2 µM
same,IC50,"PA-1, Female GU - Ovary",16.3 µM
same,EC50,"PANC-1, PANC-1, Pancreas",7.06 µM
same,GI50,"PANC-1, PANC-1, Pancreas",7.01 µM
same,IC50,"PANC-1, PANC-1, Pancreas",7.06 µM
same,EC50,"PC-3, Prostate",12 µM
same,GI50,"PC-3, Prostate",11.8 µM
same,IC50,"PC-3, Prostate",12 µM
same,EC50,"PFSK-1, PFSK-1, CNS - Glioma",14.7 µM
same,GI50,"PFSK-1, PFSK-1, CNS - Glioma",14.6 µM
same,IC50,"PFSK-1, PFSK-1, CNS - Glioma",14.7 µM
same,EC50,"PSN1, PSN-1, Pancreas",12 µM
same,GI50,"PSN1, PSN-1, Pancreas",12 µM
same,IC50,"PSN1, PSN-1, Pancreas",12 µM
same,EC50,"RD, Soft Tissue - Sarcoma",2.98 µM
same,GI50,"RD, Soft Tissue - Sarcoma",2.96 µM
same,IC50,"RD, Soft Tissue - Sarcoma",2.98 µM
same,EC50,"RKO, Colon",7.22 µM
same,GI50,"RKO, Colon",7.92 µM
same,IC50,"RKO, Colon",7.92 µM
same,EC50,"RKOE6, RKOE6, Colon",6.95 µM
same,GI50,"RKOE6, RKOE6, Colon",6.93 µM
same,IC50,"RKOE6, RKOE6, Colon",6.95 µM
same,EC50,"RPMI-6666, RPMI 6666, Lymphoma",10.4 µM
same,GI50,"RPMI-6666, RPMI 6666, Lymphoma",10.7 µM
same,IC50,"RPMI-6666, RPMI 6666, Lymphoma",10.7 µM
same,EC50,[10],5.77 µM
same,GI50,[10],6.13 µM
same,IC50,[10],6.15 µM
same,EC50,"RPMI-8226, RPMI 8226, Myeloma",2.02 µM
same,GI50,"RPMI-8226, RPMI 8226, Myeloma",1.95 µM
same,IC50,"RPMI-8226, RPMI 8226, Myeloma",2.02 µM
same,EC50,"RS4-11, RS4, 11, Leukemia",6.43 µM
same,GI50,"RS4-11, RS4, 11, Leukemia",6.3 µM
same,IC50,"RS4-11, RS4, 11, Leukemia",6.43 µM
same,EC50,"Raji, Lymphoma",8.04 µM
same,GI50,"Raji, Lymphoma",8.04 µM
same,IC50,"Raji, Lymphoma",8.04 µM
same,EC50,"Ramos, Ramos (RA 1), Lymphoma",4.39 µM
same,GI50,"Ramos, Ramos (RA 1), Lymphoma",4.39 µM
same,IC50,"Ramos, Ramos (RA 1), Lymphoma",4.39 µM
same,EC50,[11],15.7 µM
same,GI50,[11],15.1 µM
same,IC50,[11],15.7 µM
same,EC50,"SCC-4, SCC-4, Head and Neck",> 30 µM
same,GI50,"SCC-4, SCC-4, Head and Neck",> 30 µM
same,IC50,"SCC-4, SCC-4, Head and Neck",> 30 µM
same,EC50,"SCC-9, SCC-9, Head and Neck",26.7 µM
same,GI50,"SCC-9, SCC-9, Head and Neck",27.3 µM
same,IC50,"SCC-9, SCC-9, Head and Neck",27.3 µM
same,EC50,"SCC-25, SCC-25, Head and Neck",> 30 µM
same,GI50,"SCC-25, SCC-25, Head and Neck",> 30 µM
same,IC50,"SCC-25, SCC-25, Head and Neck",> 30 µM
same,EC50,"SCaBER, Bladder",11.5 µM
same,GI50,"SCaBER, Bladder",11.4 µM
